Measurements published in US20220227722A1, “SPHINGOSINE 1 PHOSPHATE RECEPTOR MODULATOR” (RECEPTOS LLC, priority 2019, published 2022).
Where two headings read alike, the source gives them in different places.

Experiments:
[1] = Clinical PK, Phase 1 study of ozanimod HCl in relapsing remitting multiple sclerosis subjects; type: in vivo, human; settings: for Tmax: read-out: Median Tmax; for % of total agonist exposure at steady state: total agonist = sum of ozanimod and active metabolites, ozanimod HCl PO QD
Description: Serial blood PK samples were collected on Days 1 and the last day of dosing.

S1P2R = target: T1, S1P2R (Homo sapiens, UniProt O95136); experiment: [35S]GTPγS binding to membranes, S1P2R; type: biochemical
T1 construct: expressed in transfected cells; membranes
Method: (§1) S1P1R is a GPCR that couples exclusively to the inhibitory G protein (Gαi), decreasing adenylate cyclase activity and lowering cyclic adenosine monophosphate (cAMP levels) in the cell. The potency of Compound 1 was tested against the S1P1 receptor (S1P1R) and related family members. The potency and S1P receptor selectivity were measured using two independent in vitro assays, [^35S]guanosine-5′-O-(3-thio)triphosphate ([^35S]GTPγS) and β-lactamase gene expression and activity. The GTPγS binding to membranes prepared from stable mammalian cells lines expressing recombinant human S1P receptors 1-5 (S1P1R-S1P5R) was used to pharmacologically characterize ligand interaction with the S1P receptor family members. […] Membrane-bead complexes were then pelleted by centrifugation before the bound radioactivity was quantified with a MicroBeta2® microplate scintillation counter. The radioactive counts relative to DMSO vehicle were calculated and the half maximal effective concentration (EC50) was determined using non-linear regression.

S1P3R [2] = target: T2, S1P3R (Homo sapiens, UniProt Q99500); experiment: β-lactamase gene expression and activity whole-cell assay, S1P3R; type: cell-based; settings: stable cells expressing recombinant human S1P3R
T2 construct: expressed in transfected cells; membranes
Method: (§2) Up-regulation of β-lactamase gene expression and activity were used as a whole-cell functional readout of S1P receptor activation. […] The respective β-lactamase activity was then determined using a fluorescence resonance energy transfer (FRET)-based β-lactamase fluorescent substrate (LiveBLAzer™-FRET B/G Loading Kit CCF4-AM) according to manufacturer's instructions, and incubated with cells for 2 hours at RT. Plates were read using a SpectraMax M5 Multi-Mode microplate reader and the relative response to DMSO vehicle calculated for the EC50 determination using non-linear regression.

S1P1R [3] = target: T3, S1P1R (Homo sapiens, UniProt P21453); experiment: [35S]GTPγS binding to membranes, S1P1R; type: biochemical
T3 construct: expressed in transfected cells; membranes
Method: as §1

S1P4R [4] = target: T4, S1P4R (Homo sapiens, UniProt O95977); experiment: β-lactamase gene expression and activity whole-cell assay, S1P4R; type: cell-based; settings: stable cells expressing recombinant human S1P4R
T4 construct: expressed in transfected cells; membranes
T4 sequence (O95977 1-384): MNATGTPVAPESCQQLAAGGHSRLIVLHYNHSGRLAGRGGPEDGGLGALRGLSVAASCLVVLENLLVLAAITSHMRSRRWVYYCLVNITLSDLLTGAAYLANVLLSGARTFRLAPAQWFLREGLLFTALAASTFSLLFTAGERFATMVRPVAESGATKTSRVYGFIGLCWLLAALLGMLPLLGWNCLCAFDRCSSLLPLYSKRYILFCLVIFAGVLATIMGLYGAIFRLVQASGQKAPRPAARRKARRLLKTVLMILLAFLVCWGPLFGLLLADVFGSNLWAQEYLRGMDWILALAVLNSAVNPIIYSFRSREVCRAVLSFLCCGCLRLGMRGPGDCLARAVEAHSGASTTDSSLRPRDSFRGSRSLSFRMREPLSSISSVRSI
Method: as §2

S1P5R [5] = target: T5, S1P5R (Homo sapiens, UniProt Q9H228); experiment: [35S]GTPγS binding to membranes, S1P5R; type: biochemical
T5 construct: expressed in transfected cells; membranes
Method: as §1

S1P3R [6] = target: T2, S1P3R; experiment: [35S]GTPγS binding to membranes, S1P3R; type: biochemical
Method: as §1

S1P5R [7] = target: T5, S1P5R; experiment: β-lactamase gene expression and activity whole-cell assay, S1P5R; type: cell-based
Method: as §2

[8] = Compound 1 single dose pharmacokinetics in the rat; type: in vivo; settings: Sprague-Dawley, plasma; for AUC(0-t): read-out: AUC0-24; for half-life: read-out: t½ (converted)
Method: Plasma samples (50 μL) were aliquoted into a 96 deep-well polypropylene plate (2 mL/well) and 5 μL of dimethyl sulfoxide (DMSO) was added. Samples expected to be above the upper limit of quantitation (ULOQ) were diluted with plasma. Standard curves were prepared by mixing 5 μL of the test compound in DMSO at 10 times the concentration which was added to 50 μL of plasma in a 96 deep-well polypropylene plate. For example, for a 0.3 μM standard, the 10×DMSO concentration of the test compound was 3 μM. Standard curves were prepared using analytical standards of Compound 1. Protein was precipitated from study samples and standards by the addition of 150 μL of acetonitrile. The plate was vortexed to ensure complete precipitation of protein. The precipitated protein was pelleted by centrifugation at 4,000 rpm for 10 min at 20° C. and the clear supernatant was transferred to a clean 96-well plate and centrifuged again under the same conditions to pellet any transferred solid material.
Samples (7 μL) were introduced to a Shimadzu HPLC (LC-20ADXR) with a SIL-30ACMP autosampler (Shimadzu). The mobile phase was a gradient using 0.1% formic acid in water and 0.1% formic acid in acetonitrile. The column used was a Phenomenex Kinetic C18 100 A 2.6μ30×3 mm (PN 946975-906). The CTO-20AC column oven (Shimadzu) was set at 40° C. Prepared samples were usually analyzed in order of lowest to highest concentration for standards and reverse order of time-points for study samples. Study samples were bracketed by full standard curves. Typically at least 6 standards were used for quantitation with a percent accuracy of +/−15% for all standards except at the lower level of quantitation (LLOQ) where a percent accuracy of +/−20% was allowed.
An ABSciex Instruments Triple Quad 5500 Mass Spectrometer (Analyst 1.6.3) was used for detection in the MRM mode. Ionization was achieved by positive or negative electrospray with a source temperature of 600° C. Negative and positive mode analysis was performed in the same injection. Standard samples were usually analyzed in order of lowest to highest concentration. Typically at least six standards were used for quantification with a percent accuracy of +/−15% for all standards except at the LLOQ where a percent accuracy of +/−20% was allowable. Study samples were analyzed in reverse chronological order bracketed with bracketing standard curves.
Blood concentration versus time data are analyzed using non-compartmental methods (WinNonlin version 5.2; model 200 for oral dosing and model 202 for intravenous infusion). Absolute oral bioavailability (%) is calculated using the following expression: (Oral AUC×IV Dose)/(IV AUC×Oral Dose)×100.
Compound 1 was administered in a formulation of 10% volume/volume (v/v) DMSO and 5% v/v Tween 20 in water by IV administration (10 mL/kg) or 0.5% weight/volume (w/v) CMC in water by oral gavage (10 mL/kg). Animals received 0.2 mg/kg as the IV dose or 2 mg/kg/day orally as a single administration. Blood samples were collected at 1, 5, and 30 minutes, 2, 4, 8, 10, 24, […], 48, and 72 hours after IV dosing and 1, 2, 3, 4, 6, 8, 10, 12, 24, 48, and 72 hours following oral dosing. Blood was collected into tubes containing the anti-coagulant K2EDTA and processed to plasma. Plasma concentrations for each analyte were determined using a qualified LC-MS/MS method.

S1P1R [9] = target: T3, S1P1R; experiment: β-lactamase gene expression and activity whole-cell assay, S1P1R; type: cell-based; settings: stable cells expressing recombinant human S1P1R
Method: as §2

circulating lymphocytes = experiment: Assessment of circulating lymphocyte counts after single oral dose; type: in vivo, Sprague Dawley rats; settings: rat, 2 mg/kg oral single dose
Method: Whole blood samples were collected from acclimated, conscious male Sprague Dawley rats in the fed state using percutaneous jugular vein puncture at pre-dose and 3, 6 and 24 hours after single oral dose administration of vehicle or test compound. Blood samples were collected into K2EDTA tubes, thoroughly mixed and stored on wet ice until analyzed. Circulating lymphocyte counts were assessed by two methods from individual aliquots of the same samples. Total lymphocyte counts were determined in a standard hematology panel on a calibrated analyzer (Test #416; Horiba Medical ABX Pentra XL 80) and by in-house flow cytometry using fluorescent-activated cell sorting (FACS) analysis to determine the number of CD4+, CD8+ and B220+ lymphocytes (ThermoFisher Attune NxT flow cytometer). Data are expressed as follows for absolute lymphocyte counts (hematology analyzer), the individual lymphocyte subtypes (CD4+, CD8+ and B220+) and the sum of the individual lymphocyte subtypes (flow cytometry). • Number of lymphocytes per μL whole blood. • Percentage change relative to each group's pre-dose baseline at each time point
Whole blood samples (K2EDTA) were analyzed on the flow cytometer (ThermoFisher Attune NxT) using rat antibodies, as detailed below. The baseline and 3 hour post-dose samples were analyzed on the same day as collection. The 6 hour post-dose samples were analyzed after overnight storage at 4° C. (on wet ice in a 2-8° C. fridge) and on the same day as the 24 hour post-dose samples were collected and analyzed.
The oral dose level of 2 mg/kg of Compound 1 administered to the animals was intended to induce a significant reduction (˜≥60%) in the number of circulating lymphocyte. Following acclimation, blood samples were serially collected from the jugular vein of conscious Sprague Dawley rats prior to dosing and 3 hours, 6 and 24 hours after administration. The absolute number of circulating lymphocytes was quantified in whole blood samples using a hematology analyzer and the CD4^+, CD8^+ and B220^+ lymphocyte subtypes by flow cytometry. The plasma concentrations for each compound were quantified with liquid chromatography, tandem mass spectrometry.

S1P4R [10] = target: T4, S1P4R; experiment: [35S]GTPγS binding to membranes, S1P4R; type: biochemical
Method: as §1

[11] = Table 4 comparative selectivity, agonist values, read-out: EC50 S1P2
[12] = Table 4 comparative selectivity, agonist values, read-out: EC50 S1P3
[13] = Table 4 comparative selectivity, agonist values, read-out: EC50 S1P4

T2 sequence (Q99500 whole entry): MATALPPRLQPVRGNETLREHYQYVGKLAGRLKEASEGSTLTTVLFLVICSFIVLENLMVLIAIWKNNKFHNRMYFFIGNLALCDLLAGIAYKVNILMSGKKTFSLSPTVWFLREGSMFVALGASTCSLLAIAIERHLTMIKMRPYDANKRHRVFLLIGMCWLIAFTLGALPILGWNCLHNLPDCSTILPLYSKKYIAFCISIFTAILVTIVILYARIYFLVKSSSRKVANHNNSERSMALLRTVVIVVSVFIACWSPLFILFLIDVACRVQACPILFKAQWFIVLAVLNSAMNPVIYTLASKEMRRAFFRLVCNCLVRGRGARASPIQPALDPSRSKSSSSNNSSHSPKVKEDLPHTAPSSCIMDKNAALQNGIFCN
T3 sequence (P21453 whole entry): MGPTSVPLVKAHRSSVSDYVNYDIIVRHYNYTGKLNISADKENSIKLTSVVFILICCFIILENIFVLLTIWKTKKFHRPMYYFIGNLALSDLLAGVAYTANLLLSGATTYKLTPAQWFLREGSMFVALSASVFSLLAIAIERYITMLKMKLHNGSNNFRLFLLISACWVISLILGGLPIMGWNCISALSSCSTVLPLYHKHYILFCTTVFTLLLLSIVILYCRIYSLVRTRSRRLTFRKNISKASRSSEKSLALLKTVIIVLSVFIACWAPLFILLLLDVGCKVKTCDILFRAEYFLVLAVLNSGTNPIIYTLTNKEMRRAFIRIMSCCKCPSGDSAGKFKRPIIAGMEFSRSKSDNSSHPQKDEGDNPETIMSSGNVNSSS
T1 sequence (O95136 whole entry): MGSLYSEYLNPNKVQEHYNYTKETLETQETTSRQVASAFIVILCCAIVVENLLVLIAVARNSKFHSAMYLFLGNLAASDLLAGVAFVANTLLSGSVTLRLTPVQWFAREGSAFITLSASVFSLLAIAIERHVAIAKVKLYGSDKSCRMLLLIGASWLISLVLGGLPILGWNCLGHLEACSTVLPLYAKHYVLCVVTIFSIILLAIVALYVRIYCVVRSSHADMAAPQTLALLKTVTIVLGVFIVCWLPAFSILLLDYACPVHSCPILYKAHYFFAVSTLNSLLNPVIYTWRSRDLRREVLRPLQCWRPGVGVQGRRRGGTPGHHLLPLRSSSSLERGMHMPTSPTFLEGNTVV
T5 sequence (Q9H228 whole entry): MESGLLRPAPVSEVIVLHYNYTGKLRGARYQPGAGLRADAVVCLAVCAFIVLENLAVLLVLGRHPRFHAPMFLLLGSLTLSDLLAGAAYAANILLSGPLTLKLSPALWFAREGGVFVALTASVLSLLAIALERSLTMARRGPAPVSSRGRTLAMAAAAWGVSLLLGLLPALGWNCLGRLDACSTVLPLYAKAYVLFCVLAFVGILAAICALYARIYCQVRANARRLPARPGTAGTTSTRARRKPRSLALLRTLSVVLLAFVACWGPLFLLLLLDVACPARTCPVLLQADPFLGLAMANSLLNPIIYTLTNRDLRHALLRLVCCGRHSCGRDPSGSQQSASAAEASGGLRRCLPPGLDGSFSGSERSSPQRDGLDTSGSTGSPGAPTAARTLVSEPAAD

CC(C)Oc1ccc(-c2nc(-c3cccc4c3CCC4=O)no2)cc1C#N [Compound 1, 2-isopropoxy-5-(3-(1-oxo-2,3-dihydro-1H-inden-4-yl)-1,2,4-oxadiazol-5-yl)benzonitrile]
Peak-to-trough ratio (at steady state) ([1]; RMS subjects, ozanimod HCl 0.5 or 1 mg PO QD, steady state): 1.3- to 1.6-fold
Tmax ([1]; human, blood, po): 6 to 10 h
% of total agonist exposure at steady state [1]: 85% to 93%
EC50 (S1P2R; [11]): > 10000 nM
EC50 (S1P2R; recombinant human S1P2R membranes, read-out: EC50 S1P2R GTPγS): > 10000 nM
EC50 (S1P3R [2]): > 10000 nM
selectivity for S1P1R over S1P2R, S1P3R and S1P4R (S1P1R [3]; [35S]GTPγS binding activity readout): greater than 1000 fold
EC50 (S1P1R [3]; recombinant human S1P1R membranes): 2.1 nM
EC50 (S1P4R [4]): > 10000 nM
selectivity for S1P5R over S1P2R, S1P3R and S1P4R (S1P5R [5]; GTPγS readout): greater than 200 fold
EC50 (S1P5R [5]; recombinant human S1P5R membranes, read-out: EC50 S1P5R GTPγS): 17.9 nM
EC50 (S1P3R [6]; [12]): > 5000 nM
EC50 (S1P3R [6]; recombinant human S1P3R membranes, read-out: EC50 S1P3R GTPγS): > 5000 nM
EC50 (S1P5R [7]; stable cells expressing recombinant human S1P5R): 6.9 nM
selectivity for S1P5R over S1P2R, S1P3R and S1P4R (S1P5R [7]; β-lactamase readout): greater than 200 fold
Cmax ([8]; 0.2 mg/kg IV, single dose): 743 nM
Tmax ([8]; 0.2 mg/kg IV, single dose): 0.02 h
AUC(0-t) ([8]; 0.2 mg/kg IV, single dose): 0.386 µM·h
half-life ([8]; 0.2 mg/kg IV, single dose): 1.62 h
Cmax ([8]; 2.0 mg/kg oral, single dose): 14.8 nM
Tmax ([8]; 2.0 mg/kg oral, single dose): 3 h
Vd/F ([8]; 2.0 mg/kg oral, single dose): 292 L/kg
AUC(0-t) ([8]; 2.0 mg/kg oral, single dose): 0.0954 µM·h
half-life ([8]; 2.0 mg/kg oral, single dose): 3.73 h
bioavailability ([8]; 2.0 mg/kg oral vs 0.2 mg/kg IV): 2.5%
EC50 (S1P1R [9]): 0.04 nM
time of maximum effect on lymphocyte counts (circulating lymphocytes): by six hours after administration
effect on lymphocyte counts at the 24 hour time-point (circulating lymphocytes; 24 hours): without significant effect
reduction of B220+ lymphocyte population relative to pre-dose (circulating lymphocytes; flow cytometry): 35%
reduction of CD4+ lymphocyte population relative to pre-dose (circulating lymphocytes; flow cytometry): 68%
reduction of CD8+ lymphocyte population relative to pre-dose (circulating lymphocytes; flow cytometry): 62%
reduction of total circulating lymphocyte counts (total number of CD4+, CD8+ and B220+) relative to pre-dose (circulating lymphocytes; flow cytometry): 52%
fewer lymphocytes relative to pre-dose values (circulating lymphocytes; hematology analyzer): 44%
EC50 (S1P4R [10]; [13]): > 10000 nM
EC50 (S1P4R [10]; recombinant human S1P4R membranes, read-out: EC50 S1P4R GTPγS): > 10000 nM

CC(C)Oc1ccc(-c2nc(-c3cccc4c3CC[C@@H]4NCCO)no2)cc1C#N [Ozanimod, reference compound]
half-life ([1]; human, blood, po, 1 mg, read-out: Mean t1/2 (at steady state)): 15 to 23 h
Tmax ([1]; human, blood, po): 6 to 8 h
% of total agonist exposure at steady state [1]: Ozanimod: 3% to 6%
EC50 (S1P2R; [11]): > 10000 nM
EC50 (S1P5R [5]; Table 4 comparative selectivity, agonist values, read-out: EC50 S1P5): 5.1 nM
EC50 (S1P3R [6]; [12]): > 5000 nM
EC50 (S1P4R [10]; [13]): 2040 nM
